Data from US4298617A, “Symmetrical and asymmetrical sulfinyl-dicarbamates” (priority 1979, dated 1981).
Like-named read-outs stand apart in the source and are kept apart here.

Columns and labels:
[1] = in vivo; settings: mouse, in vivo, po
Procedure: (§1) Mammalian toxicity was determined against Swiss white mice. The test compound was applied orally using corn oil or propylene glycol as the carrier, depending upon solubility of the compound therein.

[2] = test system: house flies, Musca domestica; assay: Topical insecticidal activity against house flies (percent mortality 24 hours after application); type: in vivo; settings: read-out: House flies LD50
Procedure: (§2) Representative compounds of the N,N'-sulfinyldicarbamate esters of the invention were tested for insecticidal activity against two insect species, house flies, Musca domestica, and mosquito larvae, Culex pipiens. Stock 1% concentrated solutions of each of the test compounds were made in acetone, and such solutions diluted with acetone to a concentration of 0.001-0.1%. House flies were treated topically on the notum by 1 μl of each of the diluted acetone solutions and percent mortality was counted 24 hours after application. Insects were held at a constant temperature of 60° F. Larvicidal activity was determined by applying 1 ml of the acetone solution in 100 ml of water containing 20 3rd instar mosquito larvae. Results are presented as LD50 in μg/g for house flies and LC50 in ppm for mosquito larvae.

[3] = test system: mosquito larvae, Culex pipiens; assay: Larvicidal activity against mosquito larvae; type: in vivo; settings: 3rd instar larvae, 1 ml acetone solution in 100 ml water, 20 larvae
Procedure: as §2

[4] = test system: Swiss white mice; assay: in vivo
Procedure: as §1

[5] = topical on the notum, 1 μl acetone solution, 24 hours, 60° F.

Row | Structure (SMILES) | LD50 [1] [mg/kg] | LD50 ([2]; topical, 24 h) [mg/kg] | other results
1 | CC(C)Oc1ccccc1OC(=O)N(C)[S+]([O-])N(C)C(=O)Oc1ccccc1OC(C)C [Example II, N,N'-sulfinyldi-(2-isopropoxyphenyl methylcarbamate)] | 940 | 85 | 
2 | CCCCCCCOC(=O)N(C)[S+]([O-])N(C)C(=O)Oc1cccc2c1OC(C)(C)C2 (centres unmarked) [X, 2,3-dihydro-2,2-dimethylbenzofuranyl-7 N-[N'-(n-heptoxycarbonyl)-N'-(methylaminosulfinyl)]-N-methylcarbamate] | 150 | 13.5 | Culex LC50 [3]: 0.015 ppm
3 | CCOC(=O)N(C)[S+]([O-])N(C)C(=O)Oc1cccc(C(C)C)c1 (centres unmarked) [3-isopropylphenyl N-[N'-(ethoxycarbonyl)-N'-(methylaminosulfinyl)]-N-methylcarbamate] | 50 to 100 | 75 | 
4 | CCCOC(=O)N(CC)[S+]([O-])N(C)C(=O)ON=C(C)SC (centres unmarked) [Example V] | 115 |  | LD50 [2, 5]: 7 mg/kg
5 | COC(=O)N(C)[S+]([O-])N(C)C(=O)Oc1cccc(C(C)C)c1 (centres unmarked) [XII, 3-isopropylphenyl N-[N'-(methoxycarbonyl)-N'-(methylaminosulfinyl)]-N-methylcarbamate] | 70 | 80 | 
6 | CCCOC(=O)N(C)[S+]([O-])N(C)C(=O)ON=C(C)SC (centres unmarked) [Example VI] | 160 |  | LD50 [2, 5]: 6.6 mg/kg
7 | COC(=O)N(C)[S+]([O-])N(C)C(=O)Oc1cccc2c1OC(C)(C)C2 (centres unmarked) [Example VII, 2,3-dihydro-2,2-dimethylbenzofuranyl-7 N-[N'-(methoxycarbonyl)-N'-(methylaminosulfinyl)]-N-methylcarbamate] | 62 | 9 | 
8 | CCCOC(=O)N(C)[S+]([O-])N(C)C(=O)Oc1cccc2c1OC(C)(C)C2 (centres unmarked) [IX, 2,3-dihydro-2,2-dimethylbenzofuranyl-7 N-[N'-(n-propoxycarbonyl)-N'-(methylaminosulfinyl)]-N-methylcarbamate] | 100 | 9 | 
9 | CNC(=O)ON=C(C)SC [S-methyl N-(methylcarbamoyloxy)thioacetimidate, reference compound] | 10 |  | 
10 | CSC(C)(C)C=NOC(=O)N(C)[S+]([O-])N(C)C(=O)ON=CC(C)(C)SC [IV, N,N'-sulfinyldi[2-methyl-2-(methylthio)propionaldehyde O-(methylcarbamoyl)-oxime]] | 1.8 |  | LD50 [2, 5]: 6.5 mg/kg
11 | CCCOC(=O)N(C)[S+]([O-])N(C)C(=O)Oc1ccccc1OC(C)C (centres unmarked) [XI, 2-isopropoxyphenyl N-[N'-(n-propoxycarbonyl)-N'-(methylaminosulfinyl)]-N-methylcarbamate] | 500 to 1000 | 20 | Culex LC50 [3]: 0.18 ppm
12 | CNC(=O)Oc1ccccc1OC(C)C [2-isopropoxyphenyl methylcarbamate, reference compound] |  |  | Mice LD50 ([4]; oral, corn oil or propylene glycol carrier): 60 mg/kg
13 | CN(C(=O)Oc1cccc2c1OC(C)(C)C2)[S+]([O-])N(C)C(=O)Oc1cccc2c1OC(C)(C)C2 [Example I, N,N'-sulfinyldi-(2,3-dimethyl-2,3-dihydrobenzofuranyl-7 methylcarbamate)] | 165 | 20 | 
14 | CNC(=O)Oc1cccc2c1OC(C)(C)C2 [carbofuran, 2,3-dihydro-2,2-dimethyl-7-benzofuranyl methylcarbamate, reference compound] |  |  | Mice LD50 ([4]; mouse, in vivo, po): 2-8
15 | CCOC(=O)N(C)[S+]([O-])N(C)C(=O)Oc1cccc2c1OC(C)(C)C2 (centres unmarked) [VIII, 2,3-dihydro-2,2-dimethylbenzofuranyl-7 N-[N'-(ethoxycarbonyl)-N'-(methylaminosulfinyl)]-N-methylcarbamate] | 56 | 13 | Culex LC50 [3]: 0.04 ppm
16 | CSC(C)=NOC(=O)N(C)[S+]([O-])N(C)C(=O)ON=C(C)SC [Example III] | 210 |  | LD50 [2, 5]: 40 mg/kg
